From patent US4593090A, “Novel nitrosourea compounds, method for preparing same, and pharmaceutical composition containing same” (Gogo Kimura, priority 1981, dated 1986)

Columns and labels:
[1] = tested on: Leukemia L1210; assay: Activity against Leukemia L1210, intraperitoneal, increase in life span of mice; format: in vivo, female mice (BDF1 family); details: for ED (maximum ILS) / ED30: Mus musculus, L1210, ip; for ED (maximum ILS): read-out: O.D. (optimum dosage); for ED30: read-out: ILS30; for Survivors after 60 days / Max. ILS % / Therapeutic ratio TR: ip; for Survivors after 60 days: 6-membered group; for Max. ILS %: 60-day observation, versus control; for Therapeutic ratio TR: O.D./ILS30
Experimental: Tests were conducted in accordance with the method for measuring antitumor activity of National Cancer Center Tokyo (A, Hoshi et al, Farumashia 9 464 (1973)). Test compounds were each intraperitoneally (referred to as ip) or orally (referred to as op) administered once a day for 5 successive days to a 6-membered group of femal mice (BDF1 family, each weighing 20 to 23 g) 24 hours after 1×10^5 cells of Leukemia L1210 have been implantated into the abdominal cavities of the mice, and the effect was evaluated by comparing the survival days of treated groups with those of an untreated group of mice (control group) in 60-day observation. An increase percentage of life span (ILS%) was calculated from said average survival days compared with those of the control group. Further, therapeutic ratio (O.D./ILD30, referred to as T.R.) of each tested compound was calculated from the daily dosage of the compound necessary to increase said average survival days by 30% as compared with the control group (this dosage is referred to as ILS 30) and the daily dosage giving a maximum increase of life span to mice implantated with L1210 cells, namely an optimum dosage (referred to as O.D.). The results of five successive days intraperitoneal administrations of test compounds were shown in Tables I to III, and those of five successive oral administrations in Table IV.

[2] = Acute toxicity (LD50, Behrens-Karber method); format: in vivo, ICR mice; details: ip, mortality during 30 days; for LD50 at 720 h: mouse, in vivo
Experimental: Test compounds, dissolved or suspended in 0.5% aqueous CMC, were each intraperitoneally administered to ICR mice in a dose of 0.1 ml per 10 g body weight. LD50 (mg/kg) value of each test compound was calculated from the mortality of mice during 30 days by the Behrens-Karber method.

[3] = ip once a day for 5 successive days, daily dosage giving maximum increase of life span
[4] = ip once a day for 5 successive days, daily dosage increasing average survival days by 30%

| Compound | ED (maximum ILS) [1, 3] [mg/kg] | ED30 [1, 4] [mg/kg] | Survivors after 60 days [1] | Max. ILS % [1] [%] | Therapeutic ratio TR [1] | LD50 at 720 h [2] [mg/kg] | O.D. (optimum dosage) [1, 3] [mg/kg] | ILS30 [1, 4] [mg/kg] | LD50 [2] [mg/kg] |
| --- | --- | --- | --- | --- | --- | --- | --- | --- | --- |
| CC(C)CN(C(=O)N(CCCl)N=O)C1C(OC2CCCCC2)OC(CO)C(O)C1O [Compound 73, 3-isobutyl-3-(cyclohexyl α-D-glucopyranose-2-yl)-1-(2-chloroethyl)-1-nitrosourea] | 200 | 5.38 | 4/6 | > 420 | 37.2 | 670 | – | – | – |
| COc1ccc(CN(C[C@H]2O[C@H](OC3CCCCC3)[C@H](O)[C@@H](O)[C@H]2O)C(=O)N(CCCl)N=O)cc1 [Compound 104, 3-(p-methoxybenzyl)-3-(cyclohexyl α-D-galactopyranose-6-yl)-1-(2-chloroethyl)-1-nitrosourea] | 200 | 6.61 | 3/6 | > 325 | 30.3 | 630 | – | – | – |
| CCCCO[C@H]1O[C@H](CO)[C@H](O)[C@H](O)[C@H]1N(C)C(=O)N(CCCl)N=O [Compound 118, 3-methyl-3-(n-butyl α-D-galactopyranose-2-yl)-1-(2-chloroethyl)-1-nitrosourea] | 130 | 4.45 | 3/6 | > 350 | 29.2 | 400 | – | – | – |
| CC(C)CCO[C@H]1O[C@H](CN(CC(C)C)C(=O)N(CCCl)N=O)[C@@H](O)[C@H](O)[C@H]1O [Compound 25, 3-isobutyl-3-(isopentyl α-D-glucopyranose-6-yl)-1-(2-chloroethyl)-1-nitrosourea] | 150 | 4.2 | 6/6 | > 700 | 35.7 | 450 | – | – | – |
| CCCN(C[C@@H]1O[C@@H](OCC(C)C)[C@@H](O)[C@H](O)[C@@H]1O)C(=O)N(CCCl)N=O [Compound 133, 3-n-propyl-3-(isobutyl α-L-galactopyranose-6-yl)-1-(2-chloroethyl)-1-nitrosourea] | 150 | 4.11 | 3/6 | > 360 | 36.5 | 495 | – | – | – |
| O=NN(CCCl)C(=O)N(CC1CC1)C[C@H]1O[C@H](OC2CCCCC2)[C@H](O)[C@@H](O)[C@@H]1O [Compound 44, 3-cyclopropylmethyl-3-(cyclohexyl α-D-glucopyranose-6-yl)-1-(2-chloroethyl)-1-nitrosourea] | 150 | 3.32 | 6/6 | > 700 | 45.2 | 435 | – | – | – |
| CCCCO[C@H]1O[C@H](CN(CCC)C(=O)N(CCCl)N=O)[C@@H](O)[C@H](O)[C@H]1O [Compound 5, 3-n-propyl-3-(n-butyl α-D-glucopyranose-6-yl)-1-(2-chloroethyl)-1-nitrosourea] | 100 | 2.6 | 6/6 | > 700 | 38.5 | 325 | – | – | – |
| CO[C@H]1O[C@H](CO)[C@@H](O)[C@H](NC(=O)N(CCCl)N=O)[C@H]1O [KCNUM, 3-(methyl α-D-glucopyranose-3-yl)-1-(2-chloroethyl)-1-nitrosourea, reference compound] | 25.4 | 1.38 | 4/6 | > 425 | 18.4 | 130 | – | – | – |
| CC(C)CO[C@H]1O[C@H](CO)[C@H](O)[C@H](N(CC(C)C)C(=O)N(CCCl)N=O)[C@H]1O [Compound 125, 3-isobutyl-3-(isobutyl α-D-galactopyranose-3-yl)-1-(2-chloroethyl)-1-nitrosourea] | 250 | 7.67 | 3/6 | > 350 | 32.6 | 780 | – | – | – |
| 3-(2-methoxyethyl)-3-(1-methoxyethyl α-D-glucopyranose-3-yl)-1-(2-chloroethyl)-1-nitrosourea [Compound 80] | – | – | 5/6 | > 625 | 48.0 | – | 200 | 4.17 | 640 |
| COCC(C)OC1OC(CO)C(O)C(N(CC(C)C)C(=O)N(CCCl)N=O)C1O [Compound 79, 3-isobutyl-3-(1-methyl-2-methoxyethyl α-D-glucopyranose-3-yl)-1-(2-chloroethyl)-1-nitrosourea] | 200 | 4.93 | 4/6 | > 430 | 40.6 | 690 | – | – | – |
| COCC(C)O[C@H]1O[C@H](CN(CC(C)C)C(=O)N(CCCl)N=O)[C@@H](O)[C@@H](O)[C@@H]1O (stereo partly drawn) [Compound 144, 3-isobutyl-3-(1-methyl-2-methoxyethyl α-D-altropyranose-6-yl)-1-(2-chloroethyl)-1-nitrosourea] | 160 | 2.8 | 6/6 | > 700 | 57.1 | 580 | – | – | – |
| CCCCCCCCCCN(C[C@H]1O[C@H](OCCCC)[C@H](O)[C@@H](O)[C@@H]1O)C(=O)N(CCCl)N=O [Compound 8, 3-n-decyl-3-(n-butyl α-D-glucopyranose-6-yl)-1-(2-chloroethyl)-1-nitrosourea] | 100 | 4.46 | 3/6 | > 450 | 22.4 | 315 | – | – | – |
| CC(C)(C)N(C[C@H]1O[C@H](OC(c2ccccc2)C2CC2)[C@H](O)[C@@H](O)[C@@H]1O)C(=O)N(CCCl)N=O (stereo partly drawn) [Compound 201, 3-tert-butyl-3-(α-cyclopropylbenzyl α-D-glucopyranose-6-yl)-1-(2-chloroethyl)-1-nitrosourea] | 150 | 4.78 | 6/6 | > 700 | 31.4 | 460 | – | – | – |
| CCOCCO[C@H]1O[C@H](CO)[C@H](N(CC(C)C)C(=O)N(CCCl)N=O)[C@H](O)[C@H]1O [Compound 131, 3-isobutyl-3-(2-ethoxyethyl α-D-galacropyranose-4-yl)-1-(2-chloroethyl)-1-nitrosourea] | 160 | 3.98 | 4/6 | > 430 | 40.2 | 565 | – | – | – |
| CCOCCCOC1OC(CO)C(O)C(O)C1N(C(=O)N(CCCl)N=O)C(C)CC [Compound 69, 3-sec-butyl-3-(3-ethoxy-n-propyl α-D-glucopyranose-2-yl)-1-(2-chloroethyl)-1-nitrosourea] | – | – | 4/6 | > 435 | – | 560 | – | – | – |
| CC(C)CO[C@@H]1O[C@H](CN(CCC(C)(C)C)C(=O)N(CCCl)N=O)[C@@H](O)[C@H](O)[C@H]1O [Compound 189, 3-(3,3-dimethyl-n-butyl)-2-(isobutyl β-D-glucopyranose-6-yl)-1-(2-chloroethyl)-1-nitrosourea] | 150 | 3.1 | 6/6 | > 700 | 48.4 | 480 | – | – | – |
| CCCCOC1OC(CO)C(O)C(N(C(=O)N(CCCl)N=O)C(C)CC)C1O [Compound 81, 3-sec-butyl-3-(n-butyl β-D-glucopyranose-3-yl)-1-(2-chloroethyl)-1-nitrosourea] | 200 | 5.8 | 3/6 | > 360 | 34.5 | 580 | – | – | – |
| CCOCCCOC1OC(CO)C(O)C(N(CC(C)C)C(=O)N(CCCl)N=O)C1O [Compound 78, 3-isobutyl-3-(3-ethoxy-n-propyl α-D-glucopyranose-3-yl)-1-(2-chloroethyl)-1-nitrosourea] | 200 | 5.33 | 3/6 | > 355 | 37.5 | 675 | – | – | – |
| C=C(C)CO[C@H]1O[C@H](CN(C(=O)N(CCCl)N=O)C(C)(C)C)[C@@H](O)[C@H](O)[C@H]1O [Compound 177, 3-tert-butyl-3-(2-methyl-2-propenyl α-D-glucopyranose-6-yl)-1-(2-chloroethyl)-1-nitrosourea] | 180 | 2.75 | 6/6 | > 700 | 65.4 | 550 | – | – | – |
